# Experimental data: ChEMBL document CHEMBL1140772, “Discovery of indenopyrazoles as EGFR and VEGFR-2 tyrosine kinase inhibitors by in silico high-throughput screening” (Bioorg Med Chem Lett, 2008)
# pIC50: −log10 of the molar value. The source made the active and inactive calls. No cut-off for these calls is given here.
# Assays:
# A-431 [1] = assay: Growth inhibition of human A431 cells overexpressing EGFR after 72 hrs by MTT assay; assay type: functional; conditions: A-431, 72 h
# A-431 [2] = assay: Inhibition of human CDK in A431 cells assessed as inhibition of phosphorylation of Rb at 1 uM after 12 hrs; assay type: cell-based
# [3] = molecular target: Vascular endothelial growth factor receptor 2 (Homo sapiens, UniProt P35968); assay: Inhibition of KDR
# Sequence of Vascular endothelial growth factor receptor 2 (P35968 whole entry): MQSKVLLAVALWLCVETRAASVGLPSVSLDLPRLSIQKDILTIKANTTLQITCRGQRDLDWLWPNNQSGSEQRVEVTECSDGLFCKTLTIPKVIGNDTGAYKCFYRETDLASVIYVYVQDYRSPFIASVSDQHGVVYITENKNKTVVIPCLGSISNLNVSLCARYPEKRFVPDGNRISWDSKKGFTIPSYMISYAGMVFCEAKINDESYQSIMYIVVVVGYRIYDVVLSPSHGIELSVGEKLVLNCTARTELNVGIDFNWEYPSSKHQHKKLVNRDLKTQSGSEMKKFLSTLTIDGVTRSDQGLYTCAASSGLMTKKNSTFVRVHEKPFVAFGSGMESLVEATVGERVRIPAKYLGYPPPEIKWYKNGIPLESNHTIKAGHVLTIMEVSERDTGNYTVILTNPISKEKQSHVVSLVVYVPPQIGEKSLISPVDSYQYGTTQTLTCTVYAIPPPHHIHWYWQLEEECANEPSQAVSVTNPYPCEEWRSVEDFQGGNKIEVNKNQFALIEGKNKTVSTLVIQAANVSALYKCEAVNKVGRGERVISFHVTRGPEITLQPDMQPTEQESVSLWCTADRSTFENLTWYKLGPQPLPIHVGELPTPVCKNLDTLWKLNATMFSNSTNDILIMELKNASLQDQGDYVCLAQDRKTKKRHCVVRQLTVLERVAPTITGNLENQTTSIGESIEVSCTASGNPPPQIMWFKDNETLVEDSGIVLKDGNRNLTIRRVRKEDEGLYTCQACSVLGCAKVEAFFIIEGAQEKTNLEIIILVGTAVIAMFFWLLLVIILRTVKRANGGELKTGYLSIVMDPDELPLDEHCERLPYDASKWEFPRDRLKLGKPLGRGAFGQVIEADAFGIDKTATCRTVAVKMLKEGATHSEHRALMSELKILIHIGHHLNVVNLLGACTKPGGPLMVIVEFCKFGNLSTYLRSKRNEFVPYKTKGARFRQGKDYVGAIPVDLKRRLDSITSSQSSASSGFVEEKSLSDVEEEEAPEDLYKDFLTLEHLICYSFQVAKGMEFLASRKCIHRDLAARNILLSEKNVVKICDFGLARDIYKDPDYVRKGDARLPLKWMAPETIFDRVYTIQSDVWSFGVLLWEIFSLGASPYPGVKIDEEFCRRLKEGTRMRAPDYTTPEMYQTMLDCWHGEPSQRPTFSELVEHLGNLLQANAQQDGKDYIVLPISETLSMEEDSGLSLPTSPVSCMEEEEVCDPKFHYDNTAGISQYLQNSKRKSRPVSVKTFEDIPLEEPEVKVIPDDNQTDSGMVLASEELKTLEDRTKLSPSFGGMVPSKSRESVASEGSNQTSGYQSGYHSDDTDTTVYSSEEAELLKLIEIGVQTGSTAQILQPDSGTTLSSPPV
# [4] = molecular target: Receptor tyrosine-protein kinase erbB-2 (Homo sapiens) (UniProt P04626); assay: Inhibition of HER2 at 1 uM
# Sequence of Receptor tyrosine-protein kinase erbB-2 (Homo sapiens) (P04626 whole entry): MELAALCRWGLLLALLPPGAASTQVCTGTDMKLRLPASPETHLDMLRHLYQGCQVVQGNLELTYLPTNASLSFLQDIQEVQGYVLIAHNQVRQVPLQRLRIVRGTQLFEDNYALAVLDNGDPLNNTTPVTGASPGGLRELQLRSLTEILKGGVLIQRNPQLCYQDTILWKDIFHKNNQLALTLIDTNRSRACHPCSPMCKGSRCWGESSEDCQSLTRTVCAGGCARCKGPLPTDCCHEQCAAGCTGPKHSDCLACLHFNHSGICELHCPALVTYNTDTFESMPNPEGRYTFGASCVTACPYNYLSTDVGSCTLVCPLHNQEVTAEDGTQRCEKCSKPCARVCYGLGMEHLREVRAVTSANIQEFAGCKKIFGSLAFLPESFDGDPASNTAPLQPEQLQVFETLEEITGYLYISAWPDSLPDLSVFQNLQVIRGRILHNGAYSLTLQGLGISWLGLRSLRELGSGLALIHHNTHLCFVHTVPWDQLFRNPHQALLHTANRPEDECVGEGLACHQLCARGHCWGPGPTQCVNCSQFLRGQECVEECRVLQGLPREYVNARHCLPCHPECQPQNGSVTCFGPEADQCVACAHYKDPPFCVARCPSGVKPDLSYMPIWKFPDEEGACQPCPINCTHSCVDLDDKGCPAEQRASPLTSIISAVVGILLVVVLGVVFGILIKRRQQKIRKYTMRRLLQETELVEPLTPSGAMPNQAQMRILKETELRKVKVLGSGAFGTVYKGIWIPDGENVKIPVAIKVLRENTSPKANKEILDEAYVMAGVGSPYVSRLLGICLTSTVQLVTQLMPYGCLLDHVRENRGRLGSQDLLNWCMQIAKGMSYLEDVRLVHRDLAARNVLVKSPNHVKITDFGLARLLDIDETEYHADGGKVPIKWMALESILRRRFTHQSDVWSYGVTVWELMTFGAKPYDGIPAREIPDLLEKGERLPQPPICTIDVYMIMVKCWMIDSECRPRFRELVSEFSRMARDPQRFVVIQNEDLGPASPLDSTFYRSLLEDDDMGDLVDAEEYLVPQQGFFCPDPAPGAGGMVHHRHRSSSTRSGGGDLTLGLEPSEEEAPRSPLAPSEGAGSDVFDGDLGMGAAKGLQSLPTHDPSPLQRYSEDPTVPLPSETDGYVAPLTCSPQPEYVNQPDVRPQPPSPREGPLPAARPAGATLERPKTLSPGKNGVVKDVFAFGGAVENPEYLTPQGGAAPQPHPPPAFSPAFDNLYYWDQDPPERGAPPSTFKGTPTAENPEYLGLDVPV
Structure (SMILES),GI50 (A-431 [1]),pIC50 [3],inhibition [4],Activity (A-431 [2])
Nc1ccc(NC(=O)Nc2cccc3c2C(=O)c2c-3n[nH]c2-c2ccc(O)c(O)c2)cc1,4790 nM,,3%,
COc1ccc(-c2[nH]nc3c2C(=O)c2c(NC(=O)Nc4ccc(N)cc4)cccc2-3)cc1,1590 nM,,6%,

# Now from value to molecule, other results behind:
GI50 (A-431 [1]),pIC50 [3],inhibition [4],Structure (SMILES),Activity (A-431 [2])
56 nM,6.15,2%,O=C(Nc1ccc(O)cc1)Nc1cccc2c1C(=O)c1c-2n[nH]c1-c1ccc2c(c1)OCO2,Active
62 nM,6.42,28%,Nc1ccc(NC(=O)Nc2cccc3c2C(=O)c2c-3n[nH]c2-c2ccc3c(c2)OCO3)cc1,Active
> 10000 nM,,8%,COc1ccc(-c2[nH]nc3c2C(=O)c2c(NC(=O)Nc4ccc(O)cc4)cccc2-3)cc1,
> 10000 nM,6.19,7%,Nc1ccc(NC(=O)Nc2cccc3c2C(=O)c2c-3n[nH]c2-c2ccc(O)cc2)cc1,
